# Assays:
# [1] = Stability of CCI-779 in solution with chelating agent; format: physicochemical; conditions: citric acid at less than 0.01% w/v
# Excerpt: In some embodiments, components with chelating activity are included in the formulations of the invention as the sole “antioxidant component”. Typically, such metal-binding components, when acting as chelating agents are used in the lower end of the range of concentrations for the antioxidant component provided herein. […] Additionally, such chelating agents may be used in combination with other antioxidants as part of the antioxidant component of the invention. For example, an acceptable formulation may contain both citric acid and d,l-α-tocopherol. Optimal concentrations for the selected antioxidant(s) can be readily determined by one of skill in the art, based upon the information provided herein.
# human tumor xenografts = conditions: nude mice; cited from earlier work
# [2] = system: histologically diverse tumor cells; conditions: cited from earlier work
# Solubility of CCI-779 = format: physicochemical
# Method: A primary obstacle towards the formulation of CCI-779 as a parenteral dosage form is the poor aqueous solubility, which is less than 1 μg/ml. The drug is a non-electrolyte and approaches such as pH adjustment and salt formation are not useful for improving the aqueous solubility. […] These include ethanol, propylene glycol, polyethylene glycol and dimethylacetamide. Two problems or limitations exist with respect to the formulation of CCI-779 in these organic solvents. First, chemical instability has been noted in virtually all solvents. The instability can be due to oxidative degradation of CCI-779 or to cleavage of a lactone bond, resulting in the formation of the ring opened seco-CCI-779. Second, formulations of CCI-779 in organic solvents will precipitate upon dilution with aqueous infusion solutions, such as 0.9% Sodium Chloride Injection or 5% Dextrose Injections, or with blood. This is a primary limitation to the use of water miscible organic solvents, also referred to as cosolvents, when used as vehicles for highly water-insoluble compounds.
smiles,measurement,setting,value
"CO[C@H]1C[C@@H]2CC[C@@H](C)[C@@](O)(O2)C(=O)C(=O)N2CCCC[C@H]2C(=O)O[C@H]([C@H](C)C[C@@H]2CC[C@@H](OC(=O)C(C)(CO)CO)[C@H](OC)C2)CC(=O)[C@H](C)/C=C(\C)[C@@H](O)[C@@H](OC)C(=O)[C@H](C)C[C@H](C)/C=C/C=C/C=C/1C [CCI-779, rapamycin 42-ester with 3-hydroxy-2-(hydroxymethyl)-2-methylpropionic acid]",effect of citric acid on stability of CCI-779,[1],enhanced the stability
same,activity against human tumor xenografts,human tumor xenografts,has activity
same,growth of tumor cells in vitro,[2],inhibit the growth
same,solubility in water-miscible organic solvents,"Solubility of CCI-779; ethanol, propylene glycol, polyethylene glycol, dimethylacetamide",soluble
same,solubility in pharmaceutically acceptable vegetable oils,Solubility of CCI-779; vegetable oils,poor solubility
same,solubility,"Solubility of CCI-779; water, read-out: aqueous solubility",< 1 µg/mL

# From patent US8026276B2, “Parenteral CCI-779 formulations containing cosolvents, an antioxidant, and a surfactant” (Wyeth LLC, priority 2002, dated 2011)
